Source: PubChem BioAssay (NCI)
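Compound exposure: 48 hours, 5 concentrations, 96-well plates. TGI is the concentration that stops growth completely.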

Legend:
Experiment in all cases: NCI tumour cell line growth inhibition, 48 h
RXF-631 renal = system: RXF-631 renal
XF 498 CNS = system: XF 498 CNS
KM20L2 colon = system: KM20L2 colon
DMS 273 small cell lung = system: DMS 273 small cell lung
DLD-1 colon = system: DLD-1 colon
HOP-18 NSCLC = system: HOP-18 NSCLC
MDA-N = system: MDA-N
SN12K1 renal = system: SN12K1 renal
P388/ADR leukemia = system: P388/ADR leukemia
P388 leukemia = system: P388 leukemia

Row | SMILES | TGI (RXF-631 renal) [µM] | TGI (XF 498 CNS) [µM] | TGI (KM20L2 colon) [µM] | TGI (DMS 273 small cell lung) [µM] | TGI (DLD-1 colon) [µM] | TGI (HOP-18 NSCLC) [µM] | TGI (MDA-N) [µM] | TGI (SN12K1 renal) [µM] | TGI (P388/ADR leukemia) [µM] | TGI (P388 leukemia) [µM]
1 | Fc1ccccc1C1CC(C(c2ccccc2)c2ccccc2)=Nc2ccccc2S1 (stereo not given) | 27.2 | 27.1 | 27.6 | 20.9 | 23.6 | 31.4 | – | – | – | –
2 | O=c1nc2cc(-c3ccccc3)[nH]c2nn1-c1c(Cl)cc(Cl)cc1Cl | > 100 | 64.1 | 57.5 | > 100 | > 100 | 44.9 | – | – | – | –
3 | COc1cc(C2C(C(=O)Nc3ccccc3)=C(C)NC(C)=C2C(=O)Nc2ccccc2)ccc1O | – | > 100 | 40 | – | > 100 | > 100 | – | – | – | –
4 | COc1ccc(O)c2c1C(=O)CCCC2=O | > 100 | > 100 | > 100 | > 100 | > 100 | – | – | – | – | –
5 | C[Si](C)(C)/C=C/CN1C(=O)CCC1O (stereo not given) | – | > 100 | > 100 | > 100 | > 100 | > 100 | – | – | – | –
6 | CC(C)C(N)(C(=O)O)c1ccccc1 (stereo not given) | – | – | – | – | – | – | > 100 | – | – | –
7 | CN(O)C(=O)Cc1ccccc1 | – | > 100 | > 100 | > 100 | > 100 | – | – | – | – | –
8 | CCNCC(O)c1ccc(N)c([N+](=O)[O-])c1 (stereo not given) | – | – | – | – | – | – | > 100 | – | – | –
9 | COc1cc(Br)c(CC2=NCCc3cc(OC)c(OC)cc32)cc1OC | > 100 | – | > 100 | 51.3 | > 100 | > 100 | – | – | – | –
10 | COc1cc2c(cc1C)n(O)c(C)c(C(=O)C/C(=N/NC(=O)C[N+](C)(C)C)C(=O)Nc1cccc(Cl)c1C)[n+]2=O | > 100 | > 100 | > 100 | > 100 | > 100 | > 100 | – | – | – | –
11 | O=c1cccccc1NCCCCNc1cccccc1=O | > 100 | – | > 100 | > 100 | > 100 | > 100 | – | – | – | –
12 | COc1cccc(C2C(C(=O)Nc3cc(=O)n(C)c(=O)n3C)=C(C)NC(C)=C2C(=O)Nc2cc(=O)n(C)c(=O)n2C)c1O | > 100 | > 100 | > 100 | – | > 100 | – | – | – | – | –
13 | CC1OC(O)C(O)C(O)C1O (stereo not given) | – | – | – | – | – | – | > 100 | – | – | –
14 | Cc1ccc(Nc2ccc(Nc3ccc(C)cc3)c3c2C(=O)c2c(O)ccc(O)c2C3=O)cc1 | – | > 100 | – | > 100 | > 100 | – | – | – | – | –
15 | O=[N+]([O-])c1ccccc1C1N2CCCCC2[C@@H]2c3[nH]c4ccccc4c3CCN12 (stereo not given in full) | 32.8 | 30.6 | 25.1 | 23.4 | 36.3 | > 100 | – | – | – | –
16 | O=c1[nH]c(=S)[nH]c(O)c1/C=C1\C=CC=N1 | – | 32.3 | 41.1 | 25.3 | 22 | 85.7 | – | – | – | –
17 | CCC1(CN(C)C)CC/C(=C\c2ccc3c(c2)OCO3)C1=O (stereo not given) | > 100 | – | > 100 | > 100 | > 100 | > 100 | – | – | – | –
18 | Cc1nc(C(N)=S)sc1C(=O)/C=C/c1cccc(O)c1 | > 100 | – | > 100 | > 100 | > 100 | > 100 | – | – | – | –
19 | CCC1(OC(C)=O)C(=O)OCc2c1cc1n(c2=O)Cc2cc3ccccc3nc2-1 (stereo not given) | > 100 | > 100 | > 100 | – | > 100 | > 100 | – | – | – | –

Row | SMILES | TGI (RXF-631 renal) [µM] | TGI (XF 498 CNS) [µM] | TGI (KM20L2 colon) [µM] | TGI (DMS 273 small cell lung) [µM] | TGI (DLD-1 colon) [µM] | TGI (HOP-18 NSCLC) [µM] | TGI (MDA-N) [µM] | TGI (SN12K1 renal) [µM] | TGI (P388/ADR leukemia) [µM] | TGI (P388 leukemia) [µM]
20 | Cn1c(O)c(C(=O)Nc2ccc([N+](=O)[O-])cc2)c(=O)n(C)c1=S | – | – | 20.4 | – | > 35.5 | 6.85 | – | – | – | –
21 | Cc1cc(C)c(C(=O)OC(c2ccccc2)C(c2ccccc2)N2CCOCC2)c(C)c1 (stereo not given) | > 100 | > 100 | > 100 | > 100 | > 100 | > 100 | – | – | – | –
22 | O=[As](O)(O)c1ccc(Cc2ccc([As](=O)(O)O)cc2)cc1 | – | – | – | – | – | – | 1.65 | – | – | –
23 | COc1ccc(NC(=O)C(=O)C2NC(=S)NC2=O)c(OC)c1 (stereo not given) | > 100 | – | > 100 | > 100 | > 100 | – | – | – | – | –
24 | O=[N+]([O-])c1ccc(Cl)c(C2SCc3nc4ccccc4n32)c1 (stereo not given) | – | – | – | > 100 | > 100 | 67.7 | – | – | – | –
25 | CC[C@@H]1OC2(C)CC(S(=O)(=O)c3ccccc3)CC1O2 (stereo not given in full) | > 100 | – | > 100 | > 100 | > 100 | > 100 | – | – | – | –
26 | CCc1cccc(C)c1NC(=O)NS(=O)(=O)c1ccc(C)cc1 | > 100 | > 100 | > 100 | > 100 | > 100 | > 100 | – | – | – | –
27 | CCOC(=O)C(C[Si](C)(C)C)P(=O)(OCC)OCC (stereo not given) | > 100 | > 100 | > 100 | > 100 | > 100 | – | – | – | – | –
28 | O=Cc1coc2ccccc2c1=O | – | – | – | – | – | – | 52.3 | – | – | –
29 | CC(=O)Oc1cccc2c1C(=O)c1c(OC(C)=O)cc(C)cc1C2=O | – | – | – | – | – | – | > 100 | – | – | –
30 | O=C1C(c2ccccc2)=C(c2ccccc2)C(c2ccc(CCCCCCc3ccc(C4=C(c5ccccc5)C(=O)C(c5ccccc5)=C4c4ccccc4)cc3)cc2)=C1c1ccccc1 | > 100 | – | > 100 | > 100 | > 100 | – | – | – | – | –
31 | O=C1C2=C(c3ccccc31)C(c1ccccc1Cl)N1C(=O)CSC1=N2 (stereo not given) | > 100 | > 100 | > 100 | > 100 | > 100 | – | – | – | – | –
32 | Cc1ccc(NC(=O)C(=O)Cc2nc3ccccc3o2)c(C)c1 | > 100 | > 100 | > 100 | > 100 | > 100 | – | – | – | – | –
33 | C=C1C(C)C2C(Cc3ccccc3)NC(=O)C23C(OC(C)=O)/C=C/C(C)(O)CC(C)C/C=C/C3C1O (stereo not given) | – | 8.29 | > 100 | > 82 | > 100 | 0.814 | > 100 | 37.1 | 33.5 | 41.3
34 | COC(=O)C1=C(C(=O)OC)C2(C(=O)OC)OC1(OC)C(C1(C(=O)OC)C(C(=O)OC)=C1C(=O)OC)=C2C(=O)OC (stereo not given) | – | > 100 | > 100 | > 100 | > 100 | > 100 | – | – | – | –
35 | CC1=C2C(c3ccccc3)(c3ccccc3)C3C=CC2(C=N3)N(C(=O)NC2CCCCC2)C1=O (stereo not given) | 26.2 | – | 30.6 | 33.2 | – | 34.3 | – | – | – | –
36 | CN(C)c1ccc(/C=C/c2ccnc3ccccc23)cc1 | – | – | – | – | – | – | 40.1 | – | – | –
37 | COC1=C(OC)CCC(/C(C#N)=C/c2ccc(OC)c(OC)c2)=C1 | > 100 | – | > 100 | > 100 | > 100 | > 100 | – | – | – | –
38 | CCCCCCCCCC(=O)CC(=O)c1c(O)cccc1O | – | 40 | > 100 | 39.1 | > 100 | 93.6 | – | – | – | –
